Data reported in BindingDB's records for patent US20230295157 (Janssen Pharmaceutica, 2023).
pIC50: −log10 of the molar value.

Columns and labels:
Coagulation factor XI = Coagulation factor XI (Homo sapiens, UniProt P03951); test: Factor XIa Inhibition Assay Utilizing a Fluorophore-Quencher Pair Peptide Substrate
Source text: A fluorescence intensity (FLINT) based assay was used to monitor inhibition of Factor XIa. The peptide substrate, 5Fam-[…]-K5Tamra (purchased from New England Peptide) was chosen based on the FXI sequence. Conversion of zymogen FXI to its activated form, FXIa, occurs by proteolytic cleavage by […] at two sites, Arg146 and Arg180. The custom peptide used in this assay was based on the Arg146 cleavage site of FXI. The peptide substrate was designed with a fluorophore-quencher pair, where the fluorescence is quenched until FXIa cleaves the 8-mer peptide after the Arg residue. […] The Factor XIa FLINT assay was used with the following 5Fam-[…]-K5Tamra assay buffer: 50 mM Tris, pH 7.5, 100 mM NaCl, 5 mM CaCl2), 0.1 mg/mL BSA, 0.03% CHAPS. Assay buffer was prepared by mixing all ingredients fresh. 5Fam-[…]-K5Tamra peptide substrate was first prepared at 10 mM in 100% DMSO, then diluted to 3 mM in 100% DMSO.

Plasma kallikrein = Plasma kallikrein (Homo sapiens, UniProt P03952); test: Kallikrein Inhibition Assay Utilizing a Quenched AMC Peptide Substrate
Sequence of Plasma kallikrein (P03952 20-390 limits assumed): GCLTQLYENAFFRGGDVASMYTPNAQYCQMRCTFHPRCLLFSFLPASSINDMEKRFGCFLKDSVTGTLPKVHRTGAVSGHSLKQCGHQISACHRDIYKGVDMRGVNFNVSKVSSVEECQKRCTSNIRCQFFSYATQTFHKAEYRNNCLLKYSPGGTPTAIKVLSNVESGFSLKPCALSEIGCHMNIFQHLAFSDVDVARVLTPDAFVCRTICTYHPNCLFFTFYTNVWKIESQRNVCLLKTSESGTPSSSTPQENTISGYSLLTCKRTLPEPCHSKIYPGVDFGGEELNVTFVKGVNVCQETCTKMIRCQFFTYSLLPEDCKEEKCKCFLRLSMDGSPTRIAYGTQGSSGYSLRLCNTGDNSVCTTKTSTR
Sequence of Plasma kallikrein (P03952 391-638 limits assumed): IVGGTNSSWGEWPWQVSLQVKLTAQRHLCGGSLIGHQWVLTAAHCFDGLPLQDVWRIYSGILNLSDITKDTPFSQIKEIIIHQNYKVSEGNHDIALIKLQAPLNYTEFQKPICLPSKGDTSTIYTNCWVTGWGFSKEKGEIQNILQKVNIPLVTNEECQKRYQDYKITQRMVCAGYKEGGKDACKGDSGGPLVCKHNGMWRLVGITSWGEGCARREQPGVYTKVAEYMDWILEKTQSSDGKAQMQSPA
Protocol: A fluorescence intensity (FLINT) based assay was used to monitor inhibition of human plasma kallikrein. The peptide substrate, Z-Gly-Pro-Arg-AMC (Purchased from Bachem; Catalog #I-1150) was chosen based on its relatively low KM for kallikrein which enables running the assay at lower substrate concentrations to control background fluorescence. The kinetic parameters for this substrate were determined by fitting titration data to the Michaelis-Menten equation yielding a KM=40 μM, kcat=0.76 s−1, and kcat/KM=18932 M−1s−1. The Kallikrein FLINT assay was used with the following Z-Gly-Pro-Arg-AMC assay buffer: 50 mM Tris, pH 7.5, 100 mM NaCl, 5 mM CaCl2), 0.1 mg/mL BSA, 0.03% CHAPS. Assay buffer was prepared by mixing all ingredients fresh. 2×Z-Gly-Pro-Arg-AMC peptide substrate was prepared by diluting 10 mM stock into 1×assay buffer for a 100 μM working concentration (50 μM final concentration). The 2×kallikrein stock solution was prepared by diluting 14.76 μM stock in 1×assay buffer for a 4 nM working stock solution (2 nM final concentration).

Sequence of Coagulation factor XI (P03951 19-387 limits assumed): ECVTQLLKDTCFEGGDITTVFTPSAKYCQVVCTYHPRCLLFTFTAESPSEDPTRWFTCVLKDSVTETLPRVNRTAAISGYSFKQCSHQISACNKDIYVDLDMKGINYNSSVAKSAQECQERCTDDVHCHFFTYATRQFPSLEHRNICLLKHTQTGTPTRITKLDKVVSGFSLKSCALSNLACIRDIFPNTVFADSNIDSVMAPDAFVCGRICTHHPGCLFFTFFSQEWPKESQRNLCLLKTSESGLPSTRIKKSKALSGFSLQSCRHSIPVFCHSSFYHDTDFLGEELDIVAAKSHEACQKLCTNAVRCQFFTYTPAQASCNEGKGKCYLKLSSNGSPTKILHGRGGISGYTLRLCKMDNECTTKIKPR
Sequence of Coagulation factor XI (P03951 388-625 limits assumed): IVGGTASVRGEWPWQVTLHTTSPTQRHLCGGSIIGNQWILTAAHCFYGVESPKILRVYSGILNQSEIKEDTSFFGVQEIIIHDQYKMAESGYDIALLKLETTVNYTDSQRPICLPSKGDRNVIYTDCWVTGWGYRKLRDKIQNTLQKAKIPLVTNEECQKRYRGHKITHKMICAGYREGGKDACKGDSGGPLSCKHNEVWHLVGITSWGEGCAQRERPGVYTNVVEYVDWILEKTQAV

SMILES	pIC50 (Coagulation factor XI)	pIC50 (Plasma kallikrein)
C[C@H](CO)Oc1nccc(-c2cnc([C@@H]3CC[C@H]4CC(c5c(-n6cnnn6)ccc(Cl)c5F)=CC(=O)N43)[nH]2)c1F (relative stereo) [US20230295157, Example 169]	7.37	7.40
O=C1C=C(c2c(-n3cnnn3)ccc(Cl)c2F)C[C@H]2CC[C@@H](c3nc(-c4csc(CO)n4)c[nH]3)N12 [US20230295157, Example 22]	7.32	6.99
NC(=O)c1ccc(-c2cnc([C@@H]3CC[C@@H]4CC(c5c(-n6cnnn6)ccc(Cl)c5F)=CC(=O)N43)[nH]2)cc1F [US20230295157, Example 197]	8.39	8.22
